{
  "source": "ChEMBL document CHEMBL1201862",
  "about": "“PubChem BioAssay data set” (2004)",
  "assay_in_all_cases": "NCI tumour cell line growth inhibition, 48 h",
  "key": {"OVCAR-8": {"test_system": "OVCAR-8"}, "A498": {"test_system": "A498"}, "MOLT-4": {"test_system": "MOLT-4"}, "DU-145": {"test_system": "DU-145"}, "CAKI-1": {"test_system": "CAKI-1"}, "BT-549": {"test_system": "BT-549"}, "T47D": {"test_system": "T47D"}, "SK-MEL-2": {"test_system": "SK-MEL-2"}, "NCI-H522": {"test_system": "NCI-H522"}, "SNB-19": {"test_system": "SNB-19"}, "HOP-92": {"test_system": "HOP-92"}, "SW-620": {"test_system": "SW-620"}, "K562": {"test_system": "K562"}, "RPMI-8226": {"test_system": "RPMI-8226"}, "NCI/ADR-RES": {"test_system": "NCI/ADR-RES"}, "TK-10": {"test_system": "TK-10"}, "KM12": {"test_system": "KM12"}, "HCT-15": {"test_system": "HCT-15"}, "MDA-MB-435": {"test_system": "MDA-MB-435"}, "ACHN": {"test_system": "ACHN"}, "SK-MEL-5": {"test_system": "SK-MEL-5"}, "HCT-116": {"test_system": "HCT-116"}, "SR": {"test_system": "SR"}, "Hs-578T": {"test_system": "Hs-578T"}, "OVCAR-3": {"test_system": "OVCAR-3"}, "NCI-H226": {"test_system": "NCI-H226"}, "SF-295": {"test_system": "SF-295"}, "A549": {"test_system": "A549"}, "COLO 205": {"test_system": "COLO 205"}, "MDA-N": {"test_system": "MDA-N"}, "NCI-H23": {"test_system": "NCI-H23"}, "SNB-75": {"test_system": "SNB-75"}, "U-251": {"test_system": "U-251"}, "HT-29": {"test_system": "HT-29"}, "786-0": {"test_system": "786-0"}, "M14": {"test_system": "M14"}, "CCRF-CEM": {"test_system": "CCRF-CEM"}, "SF-268": {"test_system": "SF-268"}, "MDA-MB-231": {"test_system": "MDA-MB-231"}, "OVCAR-4": {"test_system": "OVCAR-4"}, "HOP-62": {"test_system": "HOP-62"}, "UO-31": {"test_system": "UO-31"}, "SN12C": {"test_system": "SN12C"}, "LOX IMVI": {"test_system": "LOX IMVI"}, "OVCAR-5": {"test_system": "OVCAR-5"}, "SF-539": {"test_system": "SF-539"}, "UACC-62": {"test_system": "UACC-62"}, "Malme-3M": {"test_system": "Malme-3M"}, "MCF7": {"test_system": "MCF7"}, "RXF 393": {"test_system": "RXF 393"}, "SK-MEL-28": {"test_system": "SK-MEL-28"}, "HCC 2998": {"test_system": "HCC 2998"}, "PC-3": {"test_system": "PC-3"}, "UACC-257": {"test_system": "UACC-257"}, "HL-60": {"test_system": "HL-60"}, "NCI-H460": {"test_system": "NCI-H460"}, "IGROV-1": {"test_system": "IGROV-1"}},
  "note": "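Grown in 96-well plates, cells were treated for 48 hours with each compound at five concentrations. Insufficient inhibition: endpoint recorded as highest concentration tested. GI50 is the concentration that inhibits growth by half.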 Active and inactive are the calls of the source. No stated cut-off is given here; in the data, active = GI50 up to about 1.1 µM and inactive = higher.",
  "data": [
    {"smiles": "CC(=O)OCC1OC(N2C(C)=C(C(C)=O)C(c3ccco3)C(C#N)=C2S)C(OC(C)=O)C(OC(C)=O)C1OC(C)=O", "note": "(configuration not stated)", "values": [
      {"measurement": "GI50", "setting": "OVCAR-8", "value": "> 100 µM (inactive)"},
      {"measurement": "GI50", "setting": "A498", "value": "> 100 µM (inactive)"},
      {"measurement": "GI50", "setting": "MOLT-4", "value": "> 100 µM (inactive)"},
      {"measurement": "GI50", "setting": "DU-145", "value": "> 100 µM (inactive)"},
      {"measurement": "GI50", "setting": "CAKI-1", "value": "> 100 µM (inactive)"},
      {"measurement": "GI50", "setting": "BT-549", "value": "> 100 µM (inactive)"},
      {"measurement": "GI50", "setting": "T47D", "value": "78.7 µM (inactive)"},
      {"measurement": "GI50", "setting": "SK-MEL-2", "value": "> 100 µM (inactive)"},
      {"measurement": "GI50", "setting": "NCI-H522", "value": "> 100 µM (inactive)"},
      {"measurement": "GI50", "setting": "SNB-19", "value": "> 100 µM (inactive)"},
      {"measurement": "GI50", "setting": "HOP-92", "value": "> 100 µM (inactive)"},
      {"measurement": "GI50", "setting": "SW-620", "value": "> 100 µM (inactive)"},
      {"measurement": "GI50", "setting": "K562", "value": "> 100 µM (inactive)"},
      {"measurement": "GI50", "setting": "RPMI-8226", "value": "> 100 µM (inactive)"},
      {"measurement": "GI50", "setting": "NCI/ADR-RES", "value": "> 100 µM (inactive)"},
      {"measurement": "GI50", "setting": "TK-10", "value": "> 100 µM (inactive)"},
      {"measurement": "GI50", "setting": "KM12", "value": "> 100 µM (inactive)"},
      {"measurement": "GI50", "setting": "HCT-15", "value": "> 100", "unit": "µM"},
      {"measurement": "GI50", "setting": "MDA-MB-435", "value": "> 100 µM (inactive)"},
      {"measurement": "GI50", "setting": "ACHN", "value": "> 100 µM (inactive)"},
      {"measurement": "GI50", "setting": "SK-MEL-5", "value": "> 100 µM (inactive)"},
      {"measurement": "GI50", "setting": "HCT-116", "value": "> 100 µM (inactive)"},
      {"measurement": "GI50", "setting": "SR", "value": "95.3 µM (inactive)"},
      {"measurement": "GI50", "setting": "Hs-578T", "value": "> 100 µM (inactive)"},
      {"measurement": "GI50", "setting": "OVCAR-3", "value": "> 100 µM (inactive)"},
      {"measurement": "GI50", "setting": "NCI-H226", "value": "> 100 µM (inactive)"},
      {"measurement": "GI50", "setting": "SF-295", "value": "> 100 µM (inactive)"},
      {"measurement": "GI50", "setting": "A549", "value": "> 100 µM (inactive)"},
      {"measurement": "GI50", "setting": "COLO 205", "value": "> 100 µM (inactive)"},
      {"measurement": "GI50", "setting": "MDA-N", "value": "> 100 µM (inactive)"},
      {"measurement": "GI50", "setting": "NCI-H23", "value": "> 100 µM (inactive)"},
      {"measurement": "GI50", "setting": "SNB-75", "value": "> 100 µM (inactive)"},
      {"measurement": "GI50", "setting": "U-251", "value": "> 100 µM (inactive)"},
      {"measurement": "GI50", "setting": "HT-29", "value": "> 100 µM (inactive)"},
      {"measurement": "GI50", "setting": "786-0", "value": "> 100 µM (inactive)"},
      {"measurement": "GI50", "setting": "M14", "value": "> 100 µM (inactive)"},
      {"measurement": "GI50", "setting": "CCRF-CEM", "value": "> 100 µM (inactive)"},
      {"measurement": "GI50", "setting": "SF-268", "value": "> 100 µM (inactive)"},
      {"measurement": "GI50", "setting": "MDA-MB-231", "value": "> 100 µM (inactive)"},
      {"measurement": "GI50", "setting": "OVCAR-4", "value": "> 100 µM (inactive)"},
      {"measurement": "GI50", "setting": "HOP-62", "value": "> 100 µM (inactive)"},
      {"measurement": "GI50", "setting": "UO-31", "value": "81.1 µM (inactive)"},
      {"measurement": "GI50", "setting": "SN12C", "value": "> 100 µM (inactive)"},
      {"measurement": "GI50", "setting": "LOX IMVI", "value": "> 100 µM (inactive)"},
      {"measurement": "GI50", "setting": "OVCAR-5", "value": "> 100 µM (inactive)"},
      {"measurement": "GI50", "setting": "SF-539", "value": "> 100 µM (inactive)"},
      {"measurement": "GI50", "setting": "UACC-62", "value": "> 100 µM (inactive)"},
      {"measurement": "GI50", "setting": "Malme-3M", "value": "> 100 µM (inactive)"},
      {"measurement": "GI50", "setting": "MCF7", "value": "> 100 µM (inactive)"},
      {"measurement": "GI50", "setting": "RXF 393", "value": "> 100 µM (inactive)"},
      {"measurement": "GI50", "setting": "SK-MEL-28", "value": "> 100 µM (inactive)"},
      {"measurement": "GI50", "setting": "HCC 2998", "value": "> 100 µM (inactive)"},
      {"measurement": "GI50", "setting": "PC-3", "value": "> 100 µM (inactive)"},
      {"measurement": "GI50", "setting": "UACC-257", "value": "> 100 µM (inactive)"},
      {"measurement": "GI50", "setting": "HL-60", "value": "> 100 µM (inactive)"},
      {"measurement": "GI50", "setting": "NCI-H460", "value": "> 100 µM (inactive)"},
      {"measurement": "GI50", "setting": "IGROV-1", "value": "> 100 µM (inactive)"}
    ]}
  ]
}
